Reference: patent US20230382949A1 (HEPTARES THERAPEUTICS LIMITED, priority 2020, published 2023)
pEC50: −log10 of the molar value. Where two headings read alike, the source gives them in different places. Starred links: 1 amine or outer side, 2 acyl side, 3 side chain; linkers in the order of their positions; H or OH if unused. Non-standard residues stand in square brackets, D forms with d. Residues, ends and D or L forms follow the SMILES beside them. *: point of attachment. Ala(piperidin-4-yl) = O=C([C@H](CC1CCN([*:3])CC1)N[*:1])[*:2]; Malonyl(2,2-Me2,histaminyl) = CC(C)(C(=O)NCCc1cnc[nH]1)C(=O)*; dBip = N[C@H](Cc1ccc(-c2ccccc2)cc1)C(=O)O; Oic = O=C(O)[C@@H]1C[C@@H]2CCCC[C@@H]2N1; Phe(4-Br) = N[C@@H](Cc1ccc(Br)cc1)C(=O)O; X2 = COCCOCCOCCOCCOCCNC(=O)C(C)(C)C(=O)*; Ser(ΨH,HPro) = O=C(O)[C@@H]1COCN1; hArg = N=C(N)NCCCC[C@H](N)C(=O)O; hPhe = N[C@@H](CCc1ccccc1)C(=O)O; Pip = O=C(O)[C@@H]1CCCCN1; Aib = CC(C)(N)C(=O)O

Legend:
human Apelin receptor [1] = biological target: T1, human Apelin receptor (Homo sapiens, UniProt P35414); assay: cAMP accumulation assay (HTRF), functional agonism of human Apelin receptors; type: cell-based; settings: for Emax: CHO; for pEC50: pEC50, Human Apelin agonist cAMP assay
T1 sequence (P35414 1-380): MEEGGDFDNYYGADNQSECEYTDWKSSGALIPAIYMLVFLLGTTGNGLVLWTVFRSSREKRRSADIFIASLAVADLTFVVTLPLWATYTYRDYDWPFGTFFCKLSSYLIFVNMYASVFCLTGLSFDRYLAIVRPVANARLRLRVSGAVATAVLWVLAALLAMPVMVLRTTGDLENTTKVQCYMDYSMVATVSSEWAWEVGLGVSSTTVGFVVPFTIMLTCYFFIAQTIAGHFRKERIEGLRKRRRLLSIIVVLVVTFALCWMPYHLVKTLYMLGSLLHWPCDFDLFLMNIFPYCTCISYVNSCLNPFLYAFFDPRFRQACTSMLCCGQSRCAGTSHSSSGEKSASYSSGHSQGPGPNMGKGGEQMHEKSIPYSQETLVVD
Description: cAMP functional assay. cAMP production was quantified using the Homogeneous Time-Resolved Fluorescence (HTRF) cAMP dynamic-2 assay (Cisbio, France).

human Apelin receptor [2] = biological target: T2, human Apelin receptor (Homo sapiens, UniProt P35414); assay: β-arrestin accumulation assay, functional agonism of human Apelin receptors; type: cell-based
T2 construct: host or cells: CHO-K1 cells
Experimental: β-arrestin assay. […] After 16 h incubation at 37° C. media was removed and cells were incubated at 37° C. for 90 min in serum free media containing increasing concentrations of test agonist. The assay reaction was stopped by adding detection reagent (DiscoveRx) and incubation for 60 min in the dark. Levels of receptor activation were then measured on a PheraStar fluorescence plate reader (BMG LabTech) and EC50 values were determined using Graphpad Prism.
T2 sequence (P32121 whole entry partner, one chain of several): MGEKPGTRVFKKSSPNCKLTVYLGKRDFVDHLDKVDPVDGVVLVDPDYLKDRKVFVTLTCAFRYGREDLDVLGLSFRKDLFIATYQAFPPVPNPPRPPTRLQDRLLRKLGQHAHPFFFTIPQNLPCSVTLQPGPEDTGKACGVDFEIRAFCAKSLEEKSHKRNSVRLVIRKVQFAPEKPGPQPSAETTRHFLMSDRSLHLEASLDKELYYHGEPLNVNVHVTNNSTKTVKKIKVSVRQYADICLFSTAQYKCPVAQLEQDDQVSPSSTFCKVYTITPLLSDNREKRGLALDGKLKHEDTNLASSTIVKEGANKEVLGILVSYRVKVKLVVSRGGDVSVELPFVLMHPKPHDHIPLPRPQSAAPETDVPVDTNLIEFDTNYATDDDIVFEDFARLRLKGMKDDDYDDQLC

[3] = Human Apelin agonist cAMP assay, CHO cells stably expressing the human Apelin receptor, 3 uM forskolin
[4] = CHO cells stably expressing the human Apelin receptor, 3 uM forskolin

Emax (human Apelin receptor [1]; read-out: Emax) | EC50 (human Apelin receptor [1]; read-out: pEC50 (converted)) | Compound | pEC50 (human Apelin receptor [2]) | Emax (human Apelin receptor [1]; [3]) | pEC50 (human Apelin receptor [1]; [4]) | Human Apelin agonist β-arrestin assay Emax (human Apelin receptor [2]; CHO-K1 cells overexpressing human Apelin receptor and β-arrestin, Emax only reported for active compounds)
59.2% | 20 nM | COCCOCCOCCOCCOCCNC(=O)C(C)(C)C(=O)N[C@H](CCCNC(=N)N)C(=O)N[C@@H](CCC(N)=O)C(=O)N[C@@H](CCCCNC(=N)N)C(=O)N1CCC[C@H]1C(=O)N[C@H](CCCNC(=N)N)C(=O)N[C@@H](CC(C)C)C(=O)NC(C)(C)C(=O)N[C@@H](Cc1c[nH]cn1)C(=O)N[C@@H](CC1CCNCC1)C(=O)NCC(=O)N1[C@H](C(=O)N[C@@H](Cc2ccc(Br)cc2)C(=O)N2CCC[C@H]2C(=O)N[C@H](Cc2ccc(-c3ccccc3)cc2)C(=O)O)C[C@@H]2CCCC[C@@H]21 [Example 7] (X2-[dR]Q[hArg]P[dR]L[Aib]H[Ala(piperidin-4-yl)]G[Oic][Phe(4-Br)]P[dBip]-OH) | < 5.00 | – | – | –
– | – | CC(C)C[C@H](NC(=O)[C@@H](CCCNC(=N)N)NC(=O)[C@@H]1CCCN1C(=O)[C@H](CCCCNC(=N)N)NC(=O)[C@H](CCc1ccccc1)NC(=O)[C@@H](CCCNC(=N)N)NC(=O)C(C)(C)C(=O)NCCc1c[nH]cn1)C(=O)NC(C)(C)C(=O)N[C@@H](Cc1c[nH]cn1)C(=O)N[C@@H](CC1CCNCC1)C(=O)NCC(=O)N1[C@H](C(=O)N[C@@H](Cc2ccc(Br)cc2)C(=O)N2CCC[C@H]2C(=O)N[C@H](Cc2ccc(-c3ccccc3)cc2)C(=O)O)C[C@@H]2CCCC[C@@H]21 [Example 8] ({Malonyl(2,2-Me2,histaminyl)}-[dR][hPhe][hArg]P[dR]L[Aib]H[Ala(piperidin-4-yl)]G[Oic][Phe(4-Br)]P[dBip]-OH) | < 5.00 | 56.1% | 7.80 | –
– | – | CC(C)C[C@H](NC(=O)[C@@H](CCCNC(=N)N)NC(=O)[C@@H]1CCCN1C(=O)[C@H](CCCNC(=N)N)NC(=O)[C@H](CCC(N)=O)NC(=O)[C@@H](CCCNC(=N)N)NC(=O)C(C)(C)C(=O)NCCc1c[nH]cn1)C(=O)NC(C)(C)C(=O)N[C@@H](Cc1c[nH]cn1)C(=O)N[C@@H](CC1CCNCC1)C(=O)NCC(=O)N1[C@H](C(=O)N[C@@H](Cc2ccc(Br)cc2)C(=O)N2CCC[C@H]2C(=O)N[C@H](Cc2ccc(-c3ccccc3)cc2)C(=O)O)C[C@@H]2CCCC[C@@H]21 [Example 9] ({Malonyl(2,2-Me2,histaminyl)}-[dR]QRP[dR]L[Aib]H[Ala(piperidin-4-yl)]G[Oic][Phe(4-Br)]P[dBip]-OH) | < 5.00 | 86.9% | 8.20 | –
– | – | CC(C)C[C@H](NC(=O)[C@@H](CCCNC(=N)N)NC(=O)[C@@H]1C[C@@H]2CCCC[C@@H]2N1C(=O)[C@H](CCCCNC(=N)N)NC(=O)[C@H](CCC(N)=O)NC(=O)[C@@H](CCCNC(=N)N)NC(=O)C(C)(C)C(=O)NCCc1c[nH]cn1)C(=O)NC(C)(C)C(=O)N[C@@H](Cc1c[nH]cn1)C(=O)N[C@@H](CC1CCNCC1)C(=O)NCC(=O)N1[C@H](C(=O)N[C@@H](Cc2ccc(Br)cc2)C(=O)N2CCC[C@H]2C(=O)N[C@H](Cc2ccc(-c3ccccc3)cc2)C(=O)O)C[C@@H]2CCCC[C@@H]21 [Example 10] ({Malonyl(2,2-Me2,histaminyl)}-[dR]Q[hArg][Oic][dR]L[Aib]H[Ala(piperidin-4-yl)]G[Oic][Phe(4-Br)]P[dBip]-OH) | < 5.00 | 52.5% | 7.70 | –
– | – | CC(C)C[C@H](NC(=O)[C@@H](CCCNC(=N)N)NC(=O)[C@@H]1COCN1C(=O)[C@H](CCCCNC(=N)N)NC(=O)[C@H](CCC(N)=O)NC(=O)[C@@H](CCCNC(=N)N)NC(=O)C(C)(C)C(=O)NCCc1c[nH]cn1)C(=O)NC(C)(C)C(=O)N[C@@H](Cc1c[nH]cn1)C(=O)N[C@@H](CC1CCNCC1)C(=O)NCC(=O)N1[C@H](C(=O)N[C@@H](Cc2ccc(Br)cc2)C(=O)N2CCC[C@H]2C(=O)N[C@H](Cc2ccc(-c3ccccc3)cc2)C(=O)O)C[C@@H]2CCCC[C@@H]21 [Example 11] ({Malonyl(2,2-Me2,histaminyl)}-[dR]Q[hArg][Ser(ΨH,HPro)][dR]L[Aib]H[Ala(piperidin-4-yl)]G[Oic][Phe(4-Br)]P[dBip]-OH) | < 5.00 | 90.6% | 7.90 | –
– | – | CC(C)C[C@H](NC(=O)[C@@H](CCCNC(=N)N)NC(=O)[C@@H]1CCCCN1C(=O)[C@H](CCCCNC(=N)N)NC(=O)[C@H](CCC(N)=O)NC(=O)[C@@H](CCCNC(=N)N)NC(=O)C(C)(C)C(=O)NCCc1c[nH]cn1)C(=O)NC(C)(C)C(=O)N[C@@H](Cc1c[nH]cn1)C(=O)N[C@@H](CC1CCNCC1)C(=O)NCC(=O)N1[C@H](C(=O)N[C@@H](Cc2ccc(Br)cc2)C(=O)N2CCC[C@H]2C(=O)N[C@H](Cc2ccc(-c3ccccc3)cc2)C(=O)O)C[C@@H]2CCCC[C@@H]21 [Example 12] ({Malonyl(2,2-Me2,histaminyl)}-[dR]Q[hArg][Pip][dR]L[Aib]H[Ala(piperidin-4-yl)]G[Oic][Phe(4-Br)]P[dBip]-OH) | < 5.00 | 98.9% | 8.10 | –
– | – | Apelin [reference compound] | – | – | – | 165.8
